Measurements: patent US20240366661A1, “COMPOSITIONS FOR AND METHODS OF TREATING A SUBJECT HAVING INFLAMMATION” (The George Washington University, priority 2022, published 2024)
“Also recorded” adds a separate entry of the source.

Tests used:
[1] = tested on: murine bone marrow derived macrophages (BMDMs); test: QRT-PCR of M2 markers in bone marrow derived macrophages pre-treated with HDAC11 inhibitor and polarized to M2; format: cell-based; settings: inhibitor 5 μM pre-treatment overnight prior to M2 polarization
Experimental: (§1) Upon treatment with M-CSF, bone marrow-derived monocytes (BMDM) differentiate into naïve (M0) macrophages. In the case of peritoneal exudate macrophages (PEMs), naïve M0 macrophages are isolated from the peritoneal cavity. These M0 macrophages are pre-treated with HDAC11 inhibitor followed by polarization to M2 macrophages with IL4 and IL13 cytokines or other cytokine mix including but not limited to IL10 and TGF beta.
Next, HDAC11 inhibitors were evaluated for their ability to modulate the function of macrophages. […] These commercially available HDAC11 inhibitors were tested on macrophages in-vitro to identify their macrophage modulatory properties. Next, BMDMs were isolated and polarized towards M2 phenotype with HDAC11 inhibitor pre-treatment overnight.

[2] = tested on: peritoneal exudated macrophages (PEMs); test: ELISA of IL-10 and TGFβ cytokines in peritoneal exudate macrophages treated with HDAC11 inhibitor; format: cell-based; settings: dose-dependent
From the text: as §1, with “beta. […] A chromatin immunoprecipitation assay further confirmed that HDAC11 binded preferentially to the distal promoter region of IL10, and negatively regulated its gene expression (FIG. 1B). […] This confirmed that the HDAC11 inhibitor was highly specific, and that it could recapitulate the effect of HDAC11 genetic knock down.” for “beta.”
Therefore, HDAC11 inhibitor treated M2 macrophages as a cell therapy and or topical HDAC11 inhibitor application are excellent to treat inflammatory diseases.

HDAC11 = biological target: T1, HDAC11 (Homo sapiens, UniProt Q96DB2); settings: literature statement; cited from earlier work
T1 sequence (Q96DB2 1-347): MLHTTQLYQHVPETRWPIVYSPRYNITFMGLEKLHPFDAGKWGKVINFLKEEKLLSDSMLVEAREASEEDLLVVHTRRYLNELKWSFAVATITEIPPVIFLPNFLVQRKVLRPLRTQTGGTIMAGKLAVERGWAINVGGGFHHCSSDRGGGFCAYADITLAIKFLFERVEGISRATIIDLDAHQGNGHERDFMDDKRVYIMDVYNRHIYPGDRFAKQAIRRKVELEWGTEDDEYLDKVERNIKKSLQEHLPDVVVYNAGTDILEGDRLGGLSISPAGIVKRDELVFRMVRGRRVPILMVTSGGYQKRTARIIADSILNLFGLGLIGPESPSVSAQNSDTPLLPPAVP

Row | Structure (SMILES) | Arg1 expression [1] | Fizz1 expression [1] | Mrc1 expression [1] | expression of IL-10 cytokine [2] | expression of TGFβ cytokine [2] | inhibition of HDAC11 (demyristoylation activity; potency and selectivity) (HDAC11)
1 | CC1(C)c2cccc(C(=O)NO)c2CN1c1cnc(C(F)(F)F)cn1 [FT895] | did not affect | further enhanced the expression of Fizz1 | did not affect |  |  | 
2 | COc1ccccc1NC(=O)NCc1ccc(C(=O)NO)cc1 [elevenostat] |  |  |  | increased the expression of IL-10 and TGFβ cytokines in a dose-dependent manner; also recorded: dose dependent increase | increased the expression of IL-10 and TGFβ cytokines in a dose-dependent manner; also recorded: dose dependent increase | 
3 | CCCCCCCCCCCCCCCCNNC(=O)c1cccs1 [SIS17] | increased the expression of Arg1 and Mrc1 | further enhanced the expression of Fizz1 | increased the expression of Arg1 and Mrc1 |  |  | inhibit the demyristoylation activity of HDAC11 without inhibiting other HDACs
